The values that follow come from publication doi:10.1101/2022.07.18.500363v1 (biorxiv, 2022).

Molecules are shown by their SMILES. Where two headings read alike, the source gives them in different places.

The target of the assay is PL^pro (papain-like protease, domain of nsp3) (Severe acute respiratory syndrome coronavirus 2, UniProt P0DTD1). Description: fluorogenic short peptide protease assay, 384-well. It counts as biochemical.

`COc1cc(C(=O)NS(=O)(=O)c2ccccc2C)ccc1Cc1cn(C)c2ccc(NC(=O)OC3CCCC3)cc12` [DDL-715, zafirlukast] returned an IC50 of about 24 µM.
As to `CC1=NN(c2ccc(C)c(C)c2)C(=O)/C1=N/Nc1cccc(-c2cccc(-c3nnn[nH]3)c2)c1O` [DDL-713, thrombopoietin receptor agonist-1], the IC50 (read-out: IC50PLpro, short peptide substrate, 37 °C, 10-60 min preincubation) was about 54 µM.
The compound `CC1=NN(c2ccc(C)c(C)c2)C(=O)C1=NNc1cccc(-c2cccc(C(=O)O)c2)c1O` [DDL-701, eltrombopag] came in with an IC50 of 13 µM.
